From patent US20210386704A1, “MDMA RESPONSE PREDICTION” (Universitätsspital Basel, priority 2020, published 2021)

Legend:
[1] = Pooled analysis of ten placebo-controlled crossover studies: MDMA plasma concentration (AUC 0-6 h)
[2] = poor vs extensive/normal metabolizers; de la Torre et al., 2005; Schmid et al., 2016; cited from earlier work
[3] = system: healthy human subjects; assay: Pooled analysis: subjective response to MDMA (VAS, AMRS, 5D-ASC)
[4] = system: healthy human subjects; assay: Pooled analysis: autonomic response to MDMA (blood pressure, heart rate, body temperature; Emax)

## CNC(C)Cc1ccc2c(c1)OCO2 (racemic) [MDMA, (±)3,4-methylenedioxymethamphetamine]
[1]; adjusted for dose per body weight (FIG. 2), p<0.01
  MDMA plasma concentration, relation to genetically determined CYP2D6 activity: still inversely correlated with the MDMA plasma concentration
[1]; poor vs extensive CYP2D6 metabolizers (FIGS. 1 and 2)
  MDMA concentrations and response in subjects with poor CYP2D6 activity: higher MDMA concentrations and a stronger MDMA response compared with CYP2D6 extensive metabolizers
[1]; similar total doses, not accounting for body weight
  MDMA plasma AUC over 6 hours, women vs men: women exhibit significantly higher MDMA plasma AUC than men
[2]
  MDMA blood plasma concentrations in CYP2D6 poor metabolizers: higher MDMA blood plasma concentrations than extensive/normal metabolizers
[3]; LASSO model (FIG. 3)
  Bad drug effect, relation to older age: higher bad drug effect
  Strongest predictor of outcome effects after MDMA (plasma AUC, MAP increase, AMRS, VAS, 5D-ASC ratings): dose per body weight is the strongest predictor
[3]; adjusted for dose and body weight (FIG. 2)
  Sex as predictor of response: lost its predictor value
[3]; dose-adjusted (FIG. 2)
  Effect of well-being (AMRS) before MDMA on response: no significant effect as predictor variable on the response to MDMA
[3]; dose-adjusted (FIG. 2), both p<0.01 and both p<0.05
  Dread of ego dissolution and impaired control and cognition (5D-ASC) in subjects with higher neuroticism (NEO-FFI) and trait anxiety (STAI-T): more likely to experience “dread of ego dissolution” and “impaired control and cognition”
[3]; dose-adjusted (FIG. 2), p<0.05, p<0.05, p<0.01
  Closeness (VAS), oceanic boundlessness and visionary restructuralization (5D-ASC), relation to openness to experience (NEO-FFI): positively correlated
[3]; past use within the range of 0-5 times (FIG. 2 and FIG. 3)
  Effect of past use of MDMA on response: no significant effect on the response to MDMA
[3]; within range of doses tested (75 and 125 mg)
  Good drug effect / positive effects, relation to dose: a high dose of MDMA (>75 mg) is needed to produce greater positive effects
[3]; within the 75-125 mg absolute dose range (FIG. 1)
  Intensity of response at high dose of MDMA per body weight: more intense response to MDMA with more positive and more cardiostimulant effects
[4]; LASSO model (FIG. 3)
  Heart rate increase, relation to older age: lower heart rate increase
  Temperature increase, relation to older age: lower temperature increase
[4]; adjusted for dose per body weight (FIG. 2), p<0.05
  Heart rate, correlation with age: inverse correlation between heart rate and age remained significant
